Active and inactive are the calls of the source.
Assays:
[1] = biological target: T1, Hepatocyte nuclear factor 4-alpha (Homo sapiens, UniProt P41235); format: functional, cell-based;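 further: biochemical luminescence-based dose-response counterscreen measuring inhibition of HNF4 dimerization, run alongside a screen for blockers of ABHD5–perilipin-5 interaction; split luciferase complementation of HNF4 fusion proteins in cell lysate measuring dimerization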
T1 sequence (P41235 whole entry): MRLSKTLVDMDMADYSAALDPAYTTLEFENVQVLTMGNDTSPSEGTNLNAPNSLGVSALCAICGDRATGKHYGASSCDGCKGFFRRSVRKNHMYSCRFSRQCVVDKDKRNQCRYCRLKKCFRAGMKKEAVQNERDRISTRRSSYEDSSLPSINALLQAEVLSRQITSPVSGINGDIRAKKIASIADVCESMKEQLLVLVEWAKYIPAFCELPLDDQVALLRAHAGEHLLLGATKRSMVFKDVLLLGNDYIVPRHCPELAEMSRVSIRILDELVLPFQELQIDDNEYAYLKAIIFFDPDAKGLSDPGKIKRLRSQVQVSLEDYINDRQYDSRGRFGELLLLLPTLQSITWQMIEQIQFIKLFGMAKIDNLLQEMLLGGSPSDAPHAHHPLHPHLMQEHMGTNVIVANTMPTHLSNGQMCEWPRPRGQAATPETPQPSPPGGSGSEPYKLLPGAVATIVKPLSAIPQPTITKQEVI

[2] = biological target: Heat shock protein HSP 90-alpha (Homo sapiens, UniProt P07900); format: functional, organism-based
[3] = biological target: T2, Long-chain-fatty-acid--AMP ligase FadD28 (Mycobacterium tuberculosis, UniProt P9WQ59); experiment: Fluorescence polarization aasay to screen for inhibitors that compete for the binding of FadD28 to a bisubstrate Measured in Biochemical System Using Plate Reader - 2147-01_Inhibitor_Dose_CherryPick_Activity.; format: functional, Mycobacterium tuberculosis H37Rv
T2 sequence (P9WQ59 whole entry): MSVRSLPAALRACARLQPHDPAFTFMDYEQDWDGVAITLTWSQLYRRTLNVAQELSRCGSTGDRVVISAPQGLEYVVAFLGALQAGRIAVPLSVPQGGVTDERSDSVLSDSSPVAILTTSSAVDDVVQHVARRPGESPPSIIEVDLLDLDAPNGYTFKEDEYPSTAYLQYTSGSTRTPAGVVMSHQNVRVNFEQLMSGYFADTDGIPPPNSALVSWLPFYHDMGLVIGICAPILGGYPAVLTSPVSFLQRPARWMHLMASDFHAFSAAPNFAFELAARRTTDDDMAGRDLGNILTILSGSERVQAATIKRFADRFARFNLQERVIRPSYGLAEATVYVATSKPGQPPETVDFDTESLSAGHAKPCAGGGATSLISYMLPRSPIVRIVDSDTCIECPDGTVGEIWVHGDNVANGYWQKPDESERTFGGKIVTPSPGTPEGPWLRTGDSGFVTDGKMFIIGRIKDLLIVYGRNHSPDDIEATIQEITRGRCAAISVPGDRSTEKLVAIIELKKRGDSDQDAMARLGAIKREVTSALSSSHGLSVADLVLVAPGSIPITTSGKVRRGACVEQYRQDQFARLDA

[4] = biological target: Luciferin 4-monooxygenase (Photinus pyralis, UniProt P08659); experiment: firefly luciferase enzyme inhibitors, dose response, biochemical, luminescence (AID 1891)
[5] = Luminescence Cell-Based Dose Confirmation HTS to Identify Inhibitors of Platelet Dense Granule Release. [Related pubchem assays: 1663 (Primary HTS), 1678 (Summary of Project)]; format: functional
HEK293 = experiment: inhibitors of LMP1-driven NF-kB reporter, dose response, cell-based, HEK293, luciferase, cherry-pick (AID 588343); format: functional; conditions: Homo sapiens
[6] = biological target: T3, Heat shock factor protein 1 (Mus musculus, UniProt P38532); experiment: inhibition of MG132-induced HSE-luciferase signal, confirmation, cell-based, NIH3T3, luminescence, dose retest (AID 2382); format: functional;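 further: NIH3T3 fibroblasts with HSF1-driven luciferase reporter stressed by proteasome inhibitor MG132; luminescence from HSF1-driven luciferase expression after 8 hours of MG132 stress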
T3 sequence (P38532 whole entry): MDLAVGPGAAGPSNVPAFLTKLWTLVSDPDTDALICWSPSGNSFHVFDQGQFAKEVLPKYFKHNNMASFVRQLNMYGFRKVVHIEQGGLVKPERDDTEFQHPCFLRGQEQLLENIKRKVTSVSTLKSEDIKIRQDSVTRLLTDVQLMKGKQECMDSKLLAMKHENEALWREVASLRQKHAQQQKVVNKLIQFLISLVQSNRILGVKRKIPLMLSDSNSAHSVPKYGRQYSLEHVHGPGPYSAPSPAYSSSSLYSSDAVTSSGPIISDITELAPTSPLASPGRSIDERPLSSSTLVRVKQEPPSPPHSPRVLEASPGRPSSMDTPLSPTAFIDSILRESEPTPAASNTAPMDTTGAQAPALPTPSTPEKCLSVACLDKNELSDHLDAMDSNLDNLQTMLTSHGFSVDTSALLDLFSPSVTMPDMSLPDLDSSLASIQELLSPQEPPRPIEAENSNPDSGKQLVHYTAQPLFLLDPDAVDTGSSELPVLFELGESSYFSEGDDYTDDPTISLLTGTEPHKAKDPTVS

[7] = biological target: T4, Sentrin-specific protease 7 (Homo sapiens, UniProt Q9BQF6); format: functional;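 further: Luminescence-based dose-response confirmation of ultra-high-throughput screening hits, measuring inhibition of SENP7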
T4 sequence (Q9BQF6 whole entry): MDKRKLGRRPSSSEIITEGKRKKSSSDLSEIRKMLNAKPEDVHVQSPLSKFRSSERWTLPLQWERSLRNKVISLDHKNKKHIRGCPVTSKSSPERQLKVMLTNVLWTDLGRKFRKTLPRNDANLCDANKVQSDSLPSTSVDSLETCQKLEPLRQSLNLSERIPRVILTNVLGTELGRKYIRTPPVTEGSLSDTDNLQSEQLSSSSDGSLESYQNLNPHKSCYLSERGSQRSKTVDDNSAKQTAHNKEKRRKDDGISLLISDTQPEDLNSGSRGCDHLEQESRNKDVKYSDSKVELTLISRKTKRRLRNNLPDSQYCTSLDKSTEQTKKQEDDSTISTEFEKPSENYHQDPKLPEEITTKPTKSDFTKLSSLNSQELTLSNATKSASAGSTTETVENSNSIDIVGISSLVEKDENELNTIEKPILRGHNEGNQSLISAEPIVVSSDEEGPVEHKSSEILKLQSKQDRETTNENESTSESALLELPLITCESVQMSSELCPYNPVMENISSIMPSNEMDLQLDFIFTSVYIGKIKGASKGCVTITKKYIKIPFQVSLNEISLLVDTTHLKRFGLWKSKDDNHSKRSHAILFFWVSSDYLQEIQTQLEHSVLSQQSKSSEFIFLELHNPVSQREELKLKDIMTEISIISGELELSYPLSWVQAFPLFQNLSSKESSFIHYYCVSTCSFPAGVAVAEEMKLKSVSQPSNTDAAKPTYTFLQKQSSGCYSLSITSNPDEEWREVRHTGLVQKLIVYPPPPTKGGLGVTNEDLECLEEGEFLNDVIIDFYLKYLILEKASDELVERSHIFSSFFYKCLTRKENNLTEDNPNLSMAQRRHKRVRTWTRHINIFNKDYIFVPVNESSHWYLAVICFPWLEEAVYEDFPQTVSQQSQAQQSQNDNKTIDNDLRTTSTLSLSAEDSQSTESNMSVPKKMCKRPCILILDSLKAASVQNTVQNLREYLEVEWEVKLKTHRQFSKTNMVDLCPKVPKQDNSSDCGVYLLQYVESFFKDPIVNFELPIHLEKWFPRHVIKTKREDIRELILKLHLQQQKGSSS

[8] = biological target: T5, Sentrin-specific protease 6 (Homo sapiens, UniProt Q9GZR1); format: functional;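 further: Luminescence-based dose-response confirmatory assay of SENP6 inhibition, following up an ultra-high-throughput screen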
T5 sequence (Q9GZR1 whole entry): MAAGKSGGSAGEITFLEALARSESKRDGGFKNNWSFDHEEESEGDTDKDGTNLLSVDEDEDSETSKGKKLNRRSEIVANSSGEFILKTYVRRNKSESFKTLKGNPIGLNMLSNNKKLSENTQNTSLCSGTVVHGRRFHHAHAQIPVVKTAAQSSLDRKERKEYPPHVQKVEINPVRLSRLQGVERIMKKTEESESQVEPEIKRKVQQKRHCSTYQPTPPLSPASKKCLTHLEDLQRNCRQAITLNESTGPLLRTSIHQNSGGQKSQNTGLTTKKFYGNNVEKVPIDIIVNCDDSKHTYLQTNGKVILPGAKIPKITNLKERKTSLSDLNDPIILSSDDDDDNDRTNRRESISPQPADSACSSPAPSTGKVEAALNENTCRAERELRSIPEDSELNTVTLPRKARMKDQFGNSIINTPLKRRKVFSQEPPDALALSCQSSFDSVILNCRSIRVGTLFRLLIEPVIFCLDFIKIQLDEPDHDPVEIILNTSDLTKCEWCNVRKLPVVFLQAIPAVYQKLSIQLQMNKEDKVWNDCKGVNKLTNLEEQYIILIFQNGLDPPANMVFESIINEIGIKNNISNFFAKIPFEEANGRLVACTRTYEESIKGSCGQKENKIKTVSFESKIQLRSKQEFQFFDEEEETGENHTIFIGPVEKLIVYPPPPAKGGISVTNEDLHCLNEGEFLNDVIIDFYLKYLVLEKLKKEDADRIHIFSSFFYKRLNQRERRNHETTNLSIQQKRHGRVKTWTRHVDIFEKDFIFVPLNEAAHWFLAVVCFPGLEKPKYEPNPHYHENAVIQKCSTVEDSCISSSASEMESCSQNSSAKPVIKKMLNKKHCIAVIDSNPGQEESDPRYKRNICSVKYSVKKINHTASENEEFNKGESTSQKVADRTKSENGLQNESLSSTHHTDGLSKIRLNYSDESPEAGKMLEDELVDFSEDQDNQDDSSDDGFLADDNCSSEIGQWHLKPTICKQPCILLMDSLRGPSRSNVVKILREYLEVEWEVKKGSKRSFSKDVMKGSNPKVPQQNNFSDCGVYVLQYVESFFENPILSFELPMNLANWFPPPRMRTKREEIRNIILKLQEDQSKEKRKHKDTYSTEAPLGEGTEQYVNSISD

[9] = biological target: T6, Sentrin-specific protease 8 (Homo sapiens, UniProt Q96LD8); format: functional;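 further: luminescence read-out of SENP8 inhibition, dose-response confirmation following an ultra-high-throughput screen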
T6 sequence (Q96LD8 whole entry): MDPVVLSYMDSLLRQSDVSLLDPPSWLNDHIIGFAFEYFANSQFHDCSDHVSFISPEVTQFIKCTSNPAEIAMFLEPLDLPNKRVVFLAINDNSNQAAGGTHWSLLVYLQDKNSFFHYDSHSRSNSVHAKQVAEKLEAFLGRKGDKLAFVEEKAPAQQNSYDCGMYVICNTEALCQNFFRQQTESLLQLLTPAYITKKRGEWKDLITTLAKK

Caspase-3 = biological target: T7, Caspase-3 (Homo sapiens, UniProt P42574); format: functional;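 further: Dose-response selectivity test against caspase-3 for candidate inhibitors of sentrin-specific proteases (SENPs)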
T7 sequence (P42574 whole entry): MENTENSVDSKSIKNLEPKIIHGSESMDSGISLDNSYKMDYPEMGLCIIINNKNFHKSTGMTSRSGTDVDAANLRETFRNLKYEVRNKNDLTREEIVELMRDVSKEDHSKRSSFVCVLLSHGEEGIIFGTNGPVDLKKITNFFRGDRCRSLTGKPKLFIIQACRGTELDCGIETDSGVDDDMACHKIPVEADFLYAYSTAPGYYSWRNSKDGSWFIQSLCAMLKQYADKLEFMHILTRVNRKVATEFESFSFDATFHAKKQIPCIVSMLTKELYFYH

[10] = microbe, parasite or virus in culture; format: functional; conditions: Mycobacterium tuberculosis

Sequence of Luciferin 4-monooxygenase (P08659 whole entry): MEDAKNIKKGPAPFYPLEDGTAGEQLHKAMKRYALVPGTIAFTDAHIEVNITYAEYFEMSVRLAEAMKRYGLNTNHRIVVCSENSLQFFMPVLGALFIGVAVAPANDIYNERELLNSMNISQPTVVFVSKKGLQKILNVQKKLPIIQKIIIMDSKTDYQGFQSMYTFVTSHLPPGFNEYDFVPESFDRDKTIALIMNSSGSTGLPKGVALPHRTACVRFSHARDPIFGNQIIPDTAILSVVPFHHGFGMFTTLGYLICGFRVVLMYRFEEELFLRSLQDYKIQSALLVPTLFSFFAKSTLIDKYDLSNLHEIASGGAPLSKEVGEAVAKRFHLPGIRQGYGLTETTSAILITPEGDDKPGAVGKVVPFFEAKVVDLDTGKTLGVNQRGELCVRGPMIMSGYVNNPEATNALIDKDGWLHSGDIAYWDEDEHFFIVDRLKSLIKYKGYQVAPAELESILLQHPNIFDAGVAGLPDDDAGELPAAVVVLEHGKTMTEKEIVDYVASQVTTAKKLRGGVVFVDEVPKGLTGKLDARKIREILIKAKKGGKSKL

SMILES: COc1ccccc1C=CC(=O)C=Cc1ccccc1OC
- IC50 [1]: 6.46 µM (active)

SMILES: CCC1(C)N=C(c2ccc3c(c2)OCO3)CC(c2ccccc2O)N1 (stereo not drawn)
- IC50 [1]: 1.87 µM (active)

SMILES: Cc1ccc(C(C[N+](=O)[O-])c2c(N)n(C)c(=O)n(C)c2=O)cc1 (stereo not drawn)
- AC50 [2]: 2.5 µM (active)

SMILES: Cc1ccc(/C(=N/Nc2nc3ccccc3s2)C2=C(O)c3ccccc3C2=O)cc1
- AC50 [3]: 41.1 µM (active)

SMILES: COc1cc2c(cc1OC)-c1cc(Nc3ccc4c(c3)OCCO4)nc(=O)n1CC2
- EC50 [4]: 17.4 µM (active)
- EC50 [5]: 4.63 µM (active)
- AC50 (HEK293): 27.3 µM (active)
- EC50 [6]: 2.04 µM (active)

SMILES: CCOC(=O)CN1C(=O)S/C(=C\c2ccc(-c3cccc(C(=O)O)c3C)o2)C1=O
- IC50 [7]: 6.97 µM (active)
- IC50 [8]: 18 µM (active)
- IC50 [9]: 16.2 µM (active)
- IC50 (Caspase-3): 45.4 µM (active)

SMILES: CCOc1cccc(-c2nc3cc(C)ccc3o2)c1
- IC50 [7]: 7.7 µM (active)
- IC50 [8]: 15.6 µM (active)
- IC50 [9]: 39.6 µM (active)
- IC50 (Caspase-3): 18.2 µM (active)

SMILES: Cc1ccc(S(=O)(=O)NC(=NNC(=O)c2cccc(Cl)c2)c2ccccc2)cc1
- IC50 [7]: 5.83 µM (active)
- IC50 [8]: 13.6 µM (active)
- IC50 [9]: 19.4 µM (active)
- IC50 (Caspase-3): 10.3 µM (active)

SMILES: Cc1nc(-c2ccccc2)sc1C(=O)/C=C/c1ccccc1
- IC50 [1]: 3.43 µM (active)
- CC50 [10]: 36.9 µM (active)

SMILES: Oc1ccc(O)c(C=NNC(=S)NC2CC3CC2C2C=CCC32)c1 (stereo not drawn)
- AC50 [3]: > 100 µM (inactive)

Source: ChEMBL document CHEMBL1201862, “PubChem BioAssay data set” (2004)
